Measured values as given in patent US5844100A, “Ink compositions containing azo dyes for ink jet printing” (Ilford Imaging Switzerland GmbH, priority 1995, dated 1998).

Assays:
[1] = Dye solubility in water at 20° C., determined spectroscopically; assay type: physicochemical; settings: heated at 50° C. 1 hour, cooled to 20° C., filtered
Protocol: The solubilities of the dyes according to the invention were determined as follows:
An excess of dye was heated at 50° C. in water with stirring for one hour. The mixture was then cooled down to 20° C. and filtered, and the dye content of the clear solution was determined spectroscopically.

[2] = Absorption maximum (λ max) in H2O; assay type: physicochemical

In the case of `COc1cc(N=Nc2cc(S(=O)(=O)O)c3cccc(S(=O)(=O)O)c3c2)c(C)cc1Nc1nc(SCCCS(=O)(=O)O)nc(SCCCS(=O)(=O)O)n1` [Compound 100], the “Solubility (in g per 100 ml)” value [1] is reported as 34 g per 100 ml and the “λ max (nm) in H2O” value [2] is reported as 401 nm.
In the case of `CC(=O)Nc1cc(Nc2nc(SCCCS(=O)(=O)O)nc(SCCCS(=O)(=O)O)n2)ccc1N=Nc1cc(S(=O)(=O)O)c2cccc(S(=O)(=O)O)c2c1` [Compound 102], the “λ max (nm) in H2O” value [2] is reported as 394 nm.
In the case of `Cc1cc(Nc2nc(SCCCS(=O)(=O)O)nc(SCCCS(=O)(=O)O)n2)ccc1N=Nc1cc(S(=O)(=O)O)c2cccc(S(=O)(=O)O)c2c1` [Compound 103], the “Solubility (in g per 100 ml)” value [1] is reported as 30 g per 100 ml and the “λ max (nm) in H2O” value [2] is reported as 383 nm.
With `COc1cc(N=Nc2cccc(S(=O)(=O)O)c2)c(C)cc1Nc1nc(SCCCCS(=O)(=O)O)nc(SCCCCS(=O)(=O)O)n1` [Compound 104] the “λ max (nm) in H2O” value [2] was 383 nm.
In the case of `CCCCCC(=O)Nc1cc(S(=O)(=O)O)cc2cc(S(=O)(=O)O)c(N=Nc3cc(Nc4nc(SCCCS(=O)(=O)O)nc(SCCCS(=O)(=O)O)n4)c(OC)cc3S(=O)(=O)O)c(O)c12` [Compound 109], the “λ max (nm) in H2O” value [2] is reported as 530 nm.
In the case of `O=S(=O)(O)CCCSc1nc(Nc2ccc(N=Nc3c(S(=O)(=O)O)cc4cccc(NS(=O)(=O)c5ccc(Br)cc5)c4c3O)c(S(=O)(=O)O)c2)nc(SCCCS(=O)(=O)O)n1` [Compound 111], the “λ max (nm) in H2O” value [2] is reported as 526 nm.
With `O=C(Nc1cc(S(=O)(=O)O)cc2cc(S(=O)(=O)O)c(N=Nc3cc(Nc4nc(SCCCS(=O)(=O)O)nc(SCCCS(=O)(=O)O)n4)ccc3S(=O)(=O)O)c(O)c12)c1ccccc1` [Compound 112] the “Solubility (in g per 100 ml)” value [1] was 44 g per 100 ml and the “λ max (nm) in H2O” value [2] was 512 nm.
For `Cc1ccc(S(=O)(=O)Nc2cc(S(=O)(=O)O)cc3cc(S(=O)(=O)O)c(N=Nc4cc(Nc5nc(SCCCS(=O)(=O)O)nc(SCCCS(=O)(=O)O)n5)ccc4S(=O)(=O)O)c(O)c23)cc1` [Compound 113], the “λ max (nm) in H2O” value [2] was 527 nm.
With `Cc1ccc(N=Nc2c(S(=O)(=O)O)cc3cc(S(=O)(=O)O)cc(Nc4nc(SCCCS(=O)(=O)O)nc(SCCCS(=O)(=O)O)n4)c3c2O)c(S(=O)(=O)O)c1` [Compound 115] the “λ max (nm) in H2O” value [2] was 543 nm.
In the case of `COc1ccc(N=Nc2c(S(=O)(=O)O)cc3cc(S(=O)(=O)O)cc(Nc4nc(SCCCS(=O)(=O)O)nc(SCCCS(=O)(=O)O)n4)c3c2O)cc1S(=O)(=O)O` [Compound 116], the “λ max (nm) in H2O” value [2] is reported as 555 nm.
For `Nc1ccc2cc(S(=O)(=O)O)cc(O)c2c1N=Nc1ccc(Nc2nc(SCCCS(=O)(=O)O)nc(SCCCS(=O)(=O)O)n2)cc1S(=O)(=O)O` [Compound 118], the “Solubility (in g per 100 ml)” value [1] was 43 g per 100 ml and the “λ max (nm) in H2O” value [2] was 518 nm.
In the case of `O=C(O)CCNc1ccc2cc(S(=O)(=O)O)cc(O)c2c1N=Nc1ccc(Nc2nc(SCCCS(=O)(=O)O)nc(SCCCS(=O)(=O)O)n2)cc1S(=O)(=O)O` [Compound 119], the “λ max (nm) in H2O” value [2] is reported as 535 nm.
For `Cc1cc(N=Nc2c(Nc3c(C)cccc3C)ccc3cc(S(=O)(=O)O)cc(O)c23)c(S(=O)(=O)O)cc1Nc1nc(SCCCS(=O)(=O)O)nc(SCCCS(=O)(=O)O)n1` [Compound 120], the “λ max (nm) in H2O” value [2] was 529 nm.
In the case of `COc1cc(S(=O)(=O)O)c(N=Nc2c(NCCC#N)ccc3cc(S(=O)(=O)O)cc(O)c23)cc1Nc1nc(SCCCS(=O)(=O)O)nc(SCCCS(=O)(=O)O)n1` [Compound 121], the “λ max (nm) in H2O” value [2] is reported as 542 nm.
With `O=S(=O)(O)CCCSc1nc(Nc2ccc(S(=O)(=O)O)c3cc(S(=O)(=O)O)c(N=Nc4ccc5c(S(=O)(=O)O)cccc5c4S(=O)(=O)O)c(O)c23)nc(SCCCS(=O)(=O)O)n1` [Compound 122] the “λ max (nm) in H2O” value [2] was 543 nm.
With `COc1cc(N=Nc2c(N)ccc3cc(S(=O)(=O)O)cc(O)c23)c(C)cc1Nc1nc(NCCO)nc(Nc2cccc(S(=O)(=O)O)c2)n1` [dye 1, reference compound] the “Solubility (in g per 100 ml)” value [1] was 11 g per 100 ml.
In the case of `CCCCCCNc1nc(NCCCCCC)nc(Nc2cc(S(=O)(=O)O)cc3cc(S(=O)(=O)O)c(N=Nc4ccccc4S(=O)(=O)O)c(O)c23)n1` [dye 5, reference compound], the “Solubility (in g per 100 ml)” value [1] is reported as 17 g per 100 ml.
